Key:
Test in all cases: KinomeScan profiling
Assay type in all cases: binding
[1] = target: T1, ABL1(Y253F)-phosphorylated (Homo sapiens, UniProt P00519, Y253F); settings: read-out: % control
T1 construct: purchased KinomeScan®
Summary of the method: (§1)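 Normalised RLU (% control; DMSO 100%, positive control 0%) was measured for compounds dosed at 1 μM over 468 kinases, active cut-off <35%.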

[2] = target: T2, AMPK-alpha1 (Homo sapiens, UniProt Q13131); settings: AMPK-alpha1, 1 μM; read-out: % control
T2 construct: purchased KinomeScan®
Summary of the method: as §1

[3] = target: T3, BMPR1B (Homo sapiens, UniProt O00238); settings: read-out: % control
T3 construct: purchased KinomeScan®
Summary of the method: as §1

[4] = target: EGFR(G719S) (Homo sapiens, UniProt P00533, G719S); settings: read-out: % control
Summary of the method: as §1

[5] = target: EGFR(L858R, T790M) (Homo sapiens, UniProt P00533, L858R/T790M); settings: read-out: % control
Summary of the method: as §1

[6] = target: T4, IRAK4 (Homo sapiens, UniProt Q9NWZ3); settings: IRAK4, 1 μM; read-out: % control
T4 construct: purchased KinomeScan®
T4 sequence (Q9NWZ3 1-460): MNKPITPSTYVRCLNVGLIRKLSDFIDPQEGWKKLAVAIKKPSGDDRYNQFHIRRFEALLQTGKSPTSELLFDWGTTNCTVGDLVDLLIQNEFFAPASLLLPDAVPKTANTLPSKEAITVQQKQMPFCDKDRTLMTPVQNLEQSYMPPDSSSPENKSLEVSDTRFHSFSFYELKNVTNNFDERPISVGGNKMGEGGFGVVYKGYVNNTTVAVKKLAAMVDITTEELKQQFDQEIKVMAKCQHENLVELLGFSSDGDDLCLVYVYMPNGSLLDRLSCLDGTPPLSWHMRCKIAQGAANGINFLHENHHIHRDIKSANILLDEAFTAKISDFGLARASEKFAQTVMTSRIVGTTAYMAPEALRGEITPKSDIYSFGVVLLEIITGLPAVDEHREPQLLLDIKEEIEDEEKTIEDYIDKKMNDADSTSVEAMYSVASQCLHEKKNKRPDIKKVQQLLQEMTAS
Summary of the method: as §1

[7] = target: T5, KIT(D816V) (Homo sapiens, UniProt P10721, D816V); settings: read-out: % control
T5 construct: purchased KinomeScan®
Summary of the method: as §1

[8] = target: LOK (Homo sapiens, UniProt O94804); settings: read-out: % control
Summary of the method: as §1

[9] = target: MYLK (Homo sapiens, UniProt Q15746); settings: read-out: % control
Summary of the method: as §1

[10] = target: T6, NEK10 (Homo sapiens, UniProt Q6ZWH5); settings: NEK10, 1 μM; read-out: % control
T6 sequence (Q6ZWH5 1-1172): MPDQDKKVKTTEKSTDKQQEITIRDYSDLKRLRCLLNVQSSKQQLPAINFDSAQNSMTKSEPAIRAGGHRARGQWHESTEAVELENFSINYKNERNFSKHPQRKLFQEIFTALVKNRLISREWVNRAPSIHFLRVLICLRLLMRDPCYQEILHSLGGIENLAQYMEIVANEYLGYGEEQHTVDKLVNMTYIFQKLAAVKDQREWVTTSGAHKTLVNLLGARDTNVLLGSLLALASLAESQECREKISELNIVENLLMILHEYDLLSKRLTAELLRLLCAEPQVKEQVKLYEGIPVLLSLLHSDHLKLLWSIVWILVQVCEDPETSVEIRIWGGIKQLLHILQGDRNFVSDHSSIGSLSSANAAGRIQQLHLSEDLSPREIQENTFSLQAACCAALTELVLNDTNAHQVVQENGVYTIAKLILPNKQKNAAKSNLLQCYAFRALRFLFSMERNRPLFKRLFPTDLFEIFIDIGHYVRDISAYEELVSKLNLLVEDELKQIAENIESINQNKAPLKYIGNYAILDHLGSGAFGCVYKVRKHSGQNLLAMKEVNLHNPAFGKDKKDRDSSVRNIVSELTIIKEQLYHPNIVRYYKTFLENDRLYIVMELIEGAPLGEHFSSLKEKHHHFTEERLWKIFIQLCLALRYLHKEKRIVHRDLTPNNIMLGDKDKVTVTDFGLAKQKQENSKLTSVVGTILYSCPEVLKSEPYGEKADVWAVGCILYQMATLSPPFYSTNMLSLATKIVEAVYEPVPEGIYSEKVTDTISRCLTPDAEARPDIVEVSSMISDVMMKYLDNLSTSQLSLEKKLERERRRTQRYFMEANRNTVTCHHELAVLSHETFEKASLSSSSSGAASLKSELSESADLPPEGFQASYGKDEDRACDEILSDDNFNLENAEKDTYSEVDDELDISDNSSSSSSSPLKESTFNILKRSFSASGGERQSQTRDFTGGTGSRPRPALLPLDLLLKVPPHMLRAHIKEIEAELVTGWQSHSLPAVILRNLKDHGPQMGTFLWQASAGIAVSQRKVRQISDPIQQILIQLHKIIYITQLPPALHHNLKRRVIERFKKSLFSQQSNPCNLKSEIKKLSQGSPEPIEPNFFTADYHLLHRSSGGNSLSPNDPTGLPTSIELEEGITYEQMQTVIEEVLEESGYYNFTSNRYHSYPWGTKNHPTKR
Summary of the method: as §1

[11] = target: PLK3 (Homo sapiens, UniProt Q9H4B4); settings: PLK3, 1 μM; read-out: % control
Summary of the method: as §1

[12] = target: T7, p38-delta (Homo sapiens, UniProt O15264); settings: read-out: % control
T7 sequence (O15264 1-365): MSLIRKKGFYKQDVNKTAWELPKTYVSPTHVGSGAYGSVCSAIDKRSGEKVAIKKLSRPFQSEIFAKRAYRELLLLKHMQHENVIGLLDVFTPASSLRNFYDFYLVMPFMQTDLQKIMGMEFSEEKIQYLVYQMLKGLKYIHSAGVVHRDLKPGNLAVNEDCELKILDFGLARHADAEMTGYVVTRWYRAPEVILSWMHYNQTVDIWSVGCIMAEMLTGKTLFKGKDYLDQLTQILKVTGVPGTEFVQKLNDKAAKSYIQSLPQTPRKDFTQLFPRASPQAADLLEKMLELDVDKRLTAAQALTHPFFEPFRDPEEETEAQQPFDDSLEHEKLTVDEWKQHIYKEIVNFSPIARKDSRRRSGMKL
Summary of the method: as §1

LOK, sequence (O94804 whole entry): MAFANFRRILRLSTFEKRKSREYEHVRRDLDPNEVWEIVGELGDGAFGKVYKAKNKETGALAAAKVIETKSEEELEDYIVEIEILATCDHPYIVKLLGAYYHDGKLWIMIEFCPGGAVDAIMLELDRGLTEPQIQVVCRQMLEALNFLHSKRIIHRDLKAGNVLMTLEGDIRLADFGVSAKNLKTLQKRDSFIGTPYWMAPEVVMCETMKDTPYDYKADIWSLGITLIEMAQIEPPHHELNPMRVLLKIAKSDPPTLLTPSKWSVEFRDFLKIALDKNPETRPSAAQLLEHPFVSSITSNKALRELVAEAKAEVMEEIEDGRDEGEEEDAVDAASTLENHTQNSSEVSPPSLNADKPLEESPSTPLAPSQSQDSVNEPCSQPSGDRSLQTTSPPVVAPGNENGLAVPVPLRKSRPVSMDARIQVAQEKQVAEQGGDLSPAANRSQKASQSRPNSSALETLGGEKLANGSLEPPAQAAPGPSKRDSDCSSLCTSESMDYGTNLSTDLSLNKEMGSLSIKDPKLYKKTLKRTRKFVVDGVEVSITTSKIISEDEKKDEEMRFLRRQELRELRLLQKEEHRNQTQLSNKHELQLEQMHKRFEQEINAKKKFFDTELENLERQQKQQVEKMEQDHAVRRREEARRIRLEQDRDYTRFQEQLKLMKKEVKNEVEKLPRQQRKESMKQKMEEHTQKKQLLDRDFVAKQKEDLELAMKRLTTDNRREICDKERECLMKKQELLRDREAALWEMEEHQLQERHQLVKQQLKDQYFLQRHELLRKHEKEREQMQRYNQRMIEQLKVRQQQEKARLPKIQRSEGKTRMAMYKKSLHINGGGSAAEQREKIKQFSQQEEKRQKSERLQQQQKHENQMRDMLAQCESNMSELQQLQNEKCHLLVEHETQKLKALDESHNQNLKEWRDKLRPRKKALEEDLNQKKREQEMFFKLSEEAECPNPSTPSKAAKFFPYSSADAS
T5 sequence (P10721 26-976 D816V): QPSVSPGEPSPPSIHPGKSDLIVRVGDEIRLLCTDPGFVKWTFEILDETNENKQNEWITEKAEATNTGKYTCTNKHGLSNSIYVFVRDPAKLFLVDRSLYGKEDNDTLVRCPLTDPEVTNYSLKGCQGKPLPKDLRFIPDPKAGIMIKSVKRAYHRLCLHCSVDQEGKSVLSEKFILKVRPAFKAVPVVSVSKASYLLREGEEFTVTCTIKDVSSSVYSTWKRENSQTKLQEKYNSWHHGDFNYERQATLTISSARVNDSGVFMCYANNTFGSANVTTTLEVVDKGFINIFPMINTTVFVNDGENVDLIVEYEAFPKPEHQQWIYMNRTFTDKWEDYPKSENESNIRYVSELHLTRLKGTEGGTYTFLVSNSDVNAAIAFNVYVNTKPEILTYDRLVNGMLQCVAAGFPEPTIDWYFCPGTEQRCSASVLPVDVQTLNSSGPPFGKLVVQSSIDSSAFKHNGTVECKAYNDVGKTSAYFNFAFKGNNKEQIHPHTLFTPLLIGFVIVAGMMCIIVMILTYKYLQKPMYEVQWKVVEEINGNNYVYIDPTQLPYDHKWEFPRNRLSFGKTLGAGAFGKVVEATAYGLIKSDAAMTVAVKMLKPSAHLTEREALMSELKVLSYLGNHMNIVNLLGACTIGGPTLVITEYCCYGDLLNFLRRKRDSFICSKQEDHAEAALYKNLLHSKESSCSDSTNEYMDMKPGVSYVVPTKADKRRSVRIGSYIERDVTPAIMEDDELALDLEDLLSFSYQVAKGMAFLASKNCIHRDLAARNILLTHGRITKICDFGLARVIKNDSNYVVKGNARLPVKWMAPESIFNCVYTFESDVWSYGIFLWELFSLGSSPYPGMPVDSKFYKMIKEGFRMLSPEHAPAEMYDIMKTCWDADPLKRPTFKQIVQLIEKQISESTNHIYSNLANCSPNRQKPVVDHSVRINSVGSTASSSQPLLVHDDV
T2 sequence (Q13131 whole entry): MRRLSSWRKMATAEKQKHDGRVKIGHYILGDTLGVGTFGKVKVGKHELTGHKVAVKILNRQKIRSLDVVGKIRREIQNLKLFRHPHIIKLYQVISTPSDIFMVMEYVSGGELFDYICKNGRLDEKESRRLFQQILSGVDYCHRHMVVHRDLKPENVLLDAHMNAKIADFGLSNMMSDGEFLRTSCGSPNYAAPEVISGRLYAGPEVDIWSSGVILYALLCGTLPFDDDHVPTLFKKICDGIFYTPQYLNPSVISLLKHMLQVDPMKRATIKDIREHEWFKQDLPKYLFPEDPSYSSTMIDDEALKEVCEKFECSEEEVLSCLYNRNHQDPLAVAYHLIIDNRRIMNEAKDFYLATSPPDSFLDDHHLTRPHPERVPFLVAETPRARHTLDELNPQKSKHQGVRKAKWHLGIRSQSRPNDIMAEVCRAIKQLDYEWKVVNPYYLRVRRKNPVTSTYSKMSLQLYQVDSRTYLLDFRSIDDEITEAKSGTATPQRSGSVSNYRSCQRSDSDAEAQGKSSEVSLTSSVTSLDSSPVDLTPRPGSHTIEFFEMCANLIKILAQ
T3 sequence (O00238 14-502): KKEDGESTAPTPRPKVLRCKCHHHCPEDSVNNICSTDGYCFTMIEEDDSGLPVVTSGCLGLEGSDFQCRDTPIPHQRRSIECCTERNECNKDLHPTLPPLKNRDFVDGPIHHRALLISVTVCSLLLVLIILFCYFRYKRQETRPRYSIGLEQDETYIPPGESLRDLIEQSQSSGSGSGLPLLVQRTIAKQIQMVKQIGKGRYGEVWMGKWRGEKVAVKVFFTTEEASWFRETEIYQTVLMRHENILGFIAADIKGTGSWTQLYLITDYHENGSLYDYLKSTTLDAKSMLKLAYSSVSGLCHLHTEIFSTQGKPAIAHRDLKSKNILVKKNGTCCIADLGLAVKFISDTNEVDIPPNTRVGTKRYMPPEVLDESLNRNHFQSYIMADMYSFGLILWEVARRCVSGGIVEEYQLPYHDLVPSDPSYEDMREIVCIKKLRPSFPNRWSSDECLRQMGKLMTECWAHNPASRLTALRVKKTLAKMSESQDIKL
EGFR(L858R, T790M), sequence (P00533 25-1210 T790M/L858R): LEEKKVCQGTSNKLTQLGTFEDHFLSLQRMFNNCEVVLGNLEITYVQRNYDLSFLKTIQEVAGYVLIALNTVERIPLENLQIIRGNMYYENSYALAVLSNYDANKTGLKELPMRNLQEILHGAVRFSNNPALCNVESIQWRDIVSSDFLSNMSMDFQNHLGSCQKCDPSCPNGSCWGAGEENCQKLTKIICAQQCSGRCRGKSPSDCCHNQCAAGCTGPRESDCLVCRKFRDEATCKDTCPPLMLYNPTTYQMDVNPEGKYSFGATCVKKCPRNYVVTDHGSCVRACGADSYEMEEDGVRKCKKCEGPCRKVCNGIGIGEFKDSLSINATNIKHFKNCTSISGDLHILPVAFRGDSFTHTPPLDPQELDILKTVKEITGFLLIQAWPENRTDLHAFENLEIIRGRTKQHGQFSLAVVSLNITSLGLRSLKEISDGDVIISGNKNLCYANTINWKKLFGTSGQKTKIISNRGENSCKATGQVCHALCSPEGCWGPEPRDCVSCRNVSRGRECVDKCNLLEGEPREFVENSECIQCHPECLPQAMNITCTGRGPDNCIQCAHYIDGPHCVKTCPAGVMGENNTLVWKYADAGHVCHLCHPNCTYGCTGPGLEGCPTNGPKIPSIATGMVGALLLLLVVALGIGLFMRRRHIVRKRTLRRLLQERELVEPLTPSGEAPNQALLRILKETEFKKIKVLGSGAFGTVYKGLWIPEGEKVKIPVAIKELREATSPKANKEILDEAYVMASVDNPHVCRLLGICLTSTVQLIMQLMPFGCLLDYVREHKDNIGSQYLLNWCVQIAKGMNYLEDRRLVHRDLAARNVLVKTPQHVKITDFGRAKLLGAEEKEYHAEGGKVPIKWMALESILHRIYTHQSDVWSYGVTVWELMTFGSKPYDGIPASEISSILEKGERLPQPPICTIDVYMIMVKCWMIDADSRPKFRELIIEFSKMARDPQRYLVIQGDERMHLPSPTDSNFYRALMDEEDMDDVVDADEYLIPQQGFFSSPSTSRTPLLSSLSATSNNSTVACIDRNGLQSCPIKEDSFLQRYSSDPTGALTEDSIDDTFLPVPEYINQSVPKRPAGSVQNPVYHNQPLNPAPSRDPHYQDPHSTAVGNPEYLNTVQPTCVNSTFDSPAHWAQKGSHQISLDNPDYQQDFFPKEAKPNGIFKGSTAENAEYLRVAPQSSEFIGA
PLK3, sequence (Q9H4B4 whole entry): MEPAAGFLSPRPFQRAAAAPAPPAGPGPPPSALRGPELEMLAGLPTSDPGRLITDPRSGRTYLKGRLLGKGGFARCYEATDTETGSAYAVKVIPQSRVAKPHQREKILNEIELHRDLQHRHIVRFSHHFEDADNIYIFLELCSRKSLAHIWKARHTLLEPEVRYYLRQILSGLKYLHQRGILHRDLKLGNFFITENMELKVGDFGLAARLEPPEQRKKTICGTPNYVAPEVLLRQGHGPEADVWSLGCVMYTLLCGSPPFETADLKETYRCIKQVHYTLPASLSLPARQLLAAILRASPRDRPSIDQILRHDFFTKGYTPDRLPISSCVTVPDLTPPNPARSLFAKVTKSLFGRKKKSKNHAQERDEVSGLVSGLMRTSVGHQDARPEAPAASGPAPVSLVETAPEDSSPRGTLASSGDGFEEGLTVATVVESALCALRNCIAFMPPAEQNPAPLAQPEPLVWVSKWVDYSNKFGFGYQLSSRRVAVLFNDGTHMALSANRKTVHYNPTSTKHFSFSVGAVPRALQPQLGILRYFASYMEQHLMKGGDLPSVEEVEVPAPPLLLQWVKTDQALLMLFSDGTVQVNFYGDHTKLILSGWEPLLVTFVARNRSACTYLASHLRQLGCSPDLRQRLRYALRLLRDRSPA

| SMILES | remaining binding at 1 µM [1] [%] | remaining binding at 1 µM [2] [%] | remaining binding at 1 µM [3] [%] | remaining binding at 1 µM [4] [%] | remaining binding at 1 µM [5] [%] | remaining binding at 1 µM [6] [%] | remaining binding at 1 µM [7] [%] | remaining binding at 1 µM [8] [%] | remaining binding at 1 µM [9] [%] | remaining binding at 1 µM [10] [%] | remaining binding at 1 µM [11] [%] | remaining binding at 1 µM [12] [%] |
| --- | --- | --- | --- | --- | --- | --- | --- | --- | --- | --- | --- | --- |
| CNc1c(-c2cnn([C@H]3CCN(C(C)=O)C[C@@H]3F)c2)cnc2[nH]cc(Cl)c12 [Compound 77, 1-((3S,4S)-4-(4-(3-chloro-4-(methylamino)-1H-pyrrolo[2,3-b]pyridin-5-yl)-1H-pyrazol-1-yl)-3-fluoropiperidin-1-yl)ethan-1-one] | 79 | 100 | 47 | 100 | 99 | 26 | 46 | 99 | 72 | 100 | 78 | 96 |
| CNc1c(-c2ccc(C(=O)N3CCC(N4CCOCC4)CC3)cc2)cnc2[nH]cc(Cl)c12 [Compound 96, (4-(3-chloro-4-(methylamino)-1H-pyrrolo[2,3-b]pyridin-5-yl)phenyl)(4-morpholinopiperidin-1-yl)methanone] | 98 | 75 | 54 | 100 | 98 | 62 | 86 | 88 | 85 | 100 | 99 | 99 |
| O=C(c1ccc(-c2cnc3[nH]cc(Cl)c3c2NC2CCCC2)cc1)N1CCC(N2CCOCC2)CC1 [Compound 101, (4-(3-chloro-4-(cyclopentylamino)-1H-pyrrolo[2,3-b]pyridin-5-yl)phenyl)(4-morpholinopiperidin-1-yl)methanone] | 100 | 78 | 95 | 100 | 100 | 100 | 95 | 81 | 83 | 100 | 84 | 94 |

Source: patent publication US12275731B2, “Azaindole inhibitors of wild-type and mutant forms of LRRK2” (DANA-FARBER CANCER INSTITUTE, INC., priority 2018, dated 2025)
